Measurements: BindingDB's records for doi:10.1016/s0960-894x(98)00738-0 (Cubist Pharmaceuticals, 1999)

Assays:
[1] = biological target: Isoleucine--tRNA ligase (Escherichia coli) (UniProt P00956); test: Inhibition of Escherichia coli isoleucyl-tRNA synthetase
[2] = biological target: Alanine--tRNA ligase (Escherichia coli) (UniProt P00957); test: Compound tested for the inhibition of Escherichia coli Alanine-tRNA synthetase
[3] = biological target: Leucine--tRNA ligase (Escherichia coli) (UniProt P07813); test: Compound tested for the inhibition of Escherichia coli Leucyl-tRNA synthetase
Leucine--tRNA ligase (Escherichia coli), sequence (P07813 whole entry, looked up): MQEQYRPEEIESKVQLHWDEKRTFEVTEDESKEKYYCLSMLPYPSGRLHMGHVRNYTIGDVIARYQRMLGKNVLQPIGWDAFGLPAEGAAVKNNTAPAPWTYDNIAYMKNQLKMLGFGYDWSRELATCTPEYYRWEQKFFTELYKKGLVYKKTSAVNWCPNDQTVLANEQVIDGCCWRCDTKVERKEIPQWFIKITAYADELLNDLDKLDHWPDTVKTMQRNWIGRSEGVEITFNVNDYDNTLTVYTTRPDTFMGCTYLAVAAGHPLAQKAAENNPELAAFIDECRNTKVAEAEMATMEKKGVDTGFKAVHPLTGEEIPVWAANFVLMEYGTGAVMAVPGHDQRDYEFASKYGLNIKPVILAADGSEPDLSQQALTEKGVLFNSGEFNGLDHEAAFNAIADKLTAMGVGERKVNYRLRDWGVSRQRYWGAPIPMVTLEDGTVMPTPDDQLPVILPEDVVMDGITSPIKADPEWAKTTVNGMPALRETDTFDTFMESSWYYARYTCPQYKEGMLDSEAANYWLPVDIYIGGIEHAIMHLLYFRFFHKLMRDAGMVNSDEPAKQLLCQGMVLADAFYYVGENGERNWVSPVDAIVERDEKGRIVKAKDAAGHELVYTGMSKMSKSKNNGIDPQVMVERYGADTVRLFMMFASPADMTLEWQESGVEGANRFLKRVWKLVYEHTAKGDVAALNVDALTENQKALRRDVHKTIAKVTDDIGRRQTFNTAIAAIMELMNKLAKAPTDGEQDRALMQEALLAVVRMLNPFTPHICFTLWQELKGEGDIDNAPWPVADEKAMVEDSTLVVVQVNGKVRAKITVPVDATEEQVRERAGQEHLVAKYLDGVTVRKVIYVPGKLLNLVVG

Isoleucine--tRNA ligase (Escherichia coli), sequence (P00956 whole entry, looked up): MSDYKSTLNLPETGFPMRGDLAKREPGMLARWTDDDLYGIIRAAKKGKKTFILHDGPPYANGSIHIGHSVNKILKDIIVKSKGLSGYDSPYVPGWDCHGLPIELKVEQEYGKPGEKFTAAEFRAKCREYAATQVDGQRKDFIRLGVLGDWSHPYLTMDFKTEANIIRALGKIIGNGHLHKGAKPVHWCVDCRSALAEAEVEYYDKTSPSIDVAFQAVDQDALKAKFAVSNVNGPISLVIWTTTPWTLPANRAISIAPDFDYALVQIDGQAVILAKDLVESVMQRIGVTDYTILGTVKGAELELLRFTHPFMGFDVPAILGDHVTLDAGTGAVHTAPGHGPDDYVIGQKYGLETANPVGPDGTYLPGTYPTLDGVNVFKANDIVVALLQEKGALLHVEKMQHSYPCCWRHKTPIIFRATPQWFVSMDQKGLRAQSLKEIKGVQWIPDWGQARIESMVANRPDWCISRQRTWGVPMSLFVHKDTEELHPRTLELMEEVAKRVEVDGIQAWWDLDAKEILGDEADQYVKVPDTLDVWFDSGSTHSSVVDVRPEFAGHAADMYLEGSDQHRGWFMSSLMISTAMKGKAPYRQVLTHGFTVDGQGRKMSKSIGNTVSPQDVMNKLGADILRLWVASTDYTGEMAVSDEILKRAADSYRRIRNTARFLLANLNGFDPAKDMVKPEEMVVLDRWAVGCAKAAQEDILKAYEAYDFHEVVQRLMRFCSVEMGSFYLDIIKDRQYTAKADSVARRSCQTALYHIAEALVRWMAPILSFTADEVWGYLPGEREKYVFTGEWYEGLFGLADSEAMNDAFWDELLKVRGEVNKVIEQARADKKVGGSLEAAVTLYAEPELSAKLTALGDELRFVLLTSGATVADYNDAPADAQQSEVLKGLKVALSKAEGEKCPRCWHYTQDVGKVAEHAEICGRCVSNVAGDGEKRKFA
Alanine--tRNA ligase (Escherichia coli), sequence (P00957 whole entry, looked up): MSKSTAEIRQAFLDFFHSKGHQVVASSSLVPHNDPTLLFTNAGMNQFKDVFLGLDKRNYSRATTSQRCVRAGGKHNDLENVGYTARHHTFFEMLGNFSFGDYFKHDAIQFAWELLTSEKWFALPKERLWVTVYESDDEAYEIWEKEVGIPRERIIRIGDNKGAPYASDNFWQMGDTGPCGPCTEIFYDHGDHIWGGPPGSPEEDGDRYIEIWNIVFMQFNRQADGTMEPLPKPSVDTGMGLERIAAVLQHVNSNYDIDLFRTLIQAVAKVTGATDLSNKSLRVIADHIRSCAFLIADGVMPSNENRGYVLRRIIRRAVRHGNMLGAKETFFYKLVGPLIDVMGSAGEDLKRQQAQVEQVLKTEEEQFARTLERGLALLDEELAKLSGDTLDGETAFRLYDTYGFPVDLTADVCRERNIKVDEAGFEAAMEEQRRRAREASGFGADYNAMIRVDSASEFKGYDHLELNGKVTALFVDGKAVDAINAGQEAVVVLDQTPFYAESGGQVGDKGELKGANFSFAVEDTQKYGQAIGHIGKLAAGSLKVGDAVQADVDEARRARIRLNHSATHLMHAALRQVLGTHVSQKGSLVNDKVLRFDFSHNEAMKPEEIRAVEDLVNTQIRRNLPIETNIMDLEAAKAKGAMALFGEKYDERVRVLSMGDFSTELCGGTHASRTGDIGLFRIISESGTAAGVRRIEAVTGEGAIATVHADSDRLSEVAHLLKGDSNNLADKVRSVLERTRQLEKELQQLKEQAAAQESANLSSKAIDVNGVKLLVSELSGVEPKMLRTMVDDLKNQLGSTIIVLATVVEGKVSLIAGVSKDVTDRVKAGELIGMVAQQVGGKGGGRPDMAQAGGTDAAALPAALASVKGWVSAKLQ

| SMILES | IC50 [1] | IC50 [2] | IC50 [3] |
| --- | --- | --- | --- |
| CCC(C)[C@H](N)C(=O)NS(=O)(=O)OC[C@H]1O[C@@H](c2nc(-c3ccc(OC)cc3)cs2)[C@H](O)[C@@H]1O (stereo partly drawn) [((S)-2-Amino-3-methyl-pentanoyl)-sulfamic acid (2R,3S,4R,5R)-3,4-dihydroxy-5-[4-(4-methoxy-phenyl)-thiazol-2-yl]-tetrahydro-furan-2-ylmethyl ester] | 100 nM | – | – |
| C[C@H](N)C(=O)NS(=O)(=O)OC[C@H]1O[C@@H](c2nc(-c3ccccc3)cs2)[C@H](O)[C@@H]1O [((S)-2-Amino-propionyl)-sulfamic acid (2R,3S,4R,5R)-3,4-dihydroxy-5-(4-phenyl-thiazol-2-yl)-tetrahydro-furan-2-ylmethyl ester] | 100000 nM | > 100000 nM | > 100000 nM |
| CCC(C)[C@H](N)C(=O)NS(=O)(=O)OC[C@H]1O[C@@H](c2nc(-c3cccc(OC)c3)cs2)[C@H](O)[C@@H]1O (stereo partly drawn) [((S)-2-Amino-3-methyl-pentanoyl)-sulfamic acid (2R,3S,4R,5R)-3,4-dihydroxy-5-[4-(3-methoxy-phenyl)-thiazol-2-yl]-tetrahydro-furan-2-ylmethyl ester] | 15 nM | – | – |
| N[C@@H](Cc1cnc[nH]1)C(=O)NS(=O)(=O)OC[C@H]1O[C@@H](c2nc(-c3ccccc3)cs2)[C@H](O)[C@@H]1O [[(S)-2-Amino-3-(3H-imidazol-4-yl)-propionyl]-sulfamic acid (2R,3S,4R,5R)-3,4-dihydroxy-5-(4-phenyl-thiazol-2-yl)-tetrahydro-furan-2-ylmethyl ester] | > 100000 nM | > 100000 nM | > 100000 nM |
| CCC(C)[C@H](N)C(=O)NS(=O)(=O)OC[C@H]1O[C@@H](c2nc(CCc3ccc(Oc4ccccc4)cc3)cs2)[C@H](O)[C@@H]1O (stereo partly drawn) [((S)-2-Amino-3-methyl-pentanoyl)-sulfamic acid (2R,3S,4R,5R)-3,4-dihydroxy-5-{4-[2-(4-phenoxy-phenyl)-ethyl]-thiazol-2-yl}-tetrahydro-furan-2-ylmethyl ester] | 110 nM | – | – |
| CCC(C)[C@H](N)C(=O)NS(=O)(=O)OC[C@H]1O[C@@H](c2nc(-c3ccccc3OC)cs2)[C@H](O)[C@@H]1O (stereo partly drawn) [((S)-2-Amino-3-methyl-pentanoyl)-sulfamic acid (2R,3S,4R,5R)-3,4-dihydroxy-5-[4-(2-methoxy-phenyl)-thiazol-2-yl]-tetrahydro-furan-2-ylmethyl ester] | 30 nM | – | – |
| CC(C)C[C@H](N)C(=O)NS(=O)(=O)OC[C@H]1O[C@@H](c2nc(-c3ccc(Oc4ccccc4)cc3)cs2)[C@H](O)[C@@H]1O [((S)-2-Amino-4-methyl-pentanoyl)-sulfamic acid (2R,3S,4R,5R)-3,4-dihydroxy-5-[4-(4-phenoxy-phenyl)-thiazol-2-yl]-tetrahydro-furan-2-ylmethyl ester] | – | – | 1.6 nM |
| CCC(C)[C@H](N)C(=O)NS(=O)(=O)OC[C@H]1O[C@@H](c2nc(-c3ccc4cc(OC)ccc4c3)cs2)[C@H](O)[C@@H]1O (stereo partly drawn) [((S)-2-Amino-3-methyl-pentanoyl)-sulfamic acid (2R,3S,4R,5R)-3,4-dihydroxy-5-[4-(6-methoxy-naphthalen-2-yl)-thiazol-2-yl]-tetrahydro-furan-2-ylmethyl ester] | 20 nM | – | – |
| CC(C)C[C@H](N)C(=O)NS(=O)(=O)OC[C@H]1O[C@@H](c2nc(CCc3ccc(Oc4ccccc4)cc3)cs2)[C@H](O)[C@@H]1O [((S)-2-Amino-4-methyl-pentanoyl)-sulfamic acid (2R,3S,4R,5R)-3,4-dihydroxy-5-{4-[2-(4-phenoxy-phenyl)-ethyl]-thiazol-2-yl}-tetrahydro-furan-2-ylmethyl ester] | – | – | 6 nM |
| CC(C)C[C@H](N)C(=O)NS(=O)(=O)OC[C@H]1O[C@@H](c2nc(CCc3ccccc3)cs2)[C@H](O)[C@@H]1O [((S)-2-Amino-4-methyl-pentanoyl)-sulfamic acid (2R,3S,4R,5R)-3,4-dihydroxy-5-(4-phenethyl-thiazol-2-yl)-tetrahydro-furan-2-ylmethyl ester] | – | – | < 2 nM |
| CCC(C)[C@H](N)C(=O)NS(=O)(=O)OC[C@H]1O[C@@H](c2nc(CCc3ccccc3)cs2)[C@H](O)[C@@H]1O (stereo partly drawn) [((S)-2-Amino-3-methyl-pentanoyl)-sulfamic acid (2R,3S,4R,5R)-3,4-dihydroxy-5-(4-phenethyl-thiazol-2-yl)-tetrahydro-furan-2-ylmethyl ester] | 30 nM | – | – |
| CC[C@H](C)[C@H](N)C(=O)NS(=O)(=O)OC[C@H]1O[C@@H](c2nc(-c3ccccc3)cs2)[C@H](O)[C@@H]1O [((2S,3S)-2-Amino-3-methyl-pentanoyl)-sulfamic acid (2R,3S,4R,5R)-3,4-dihydroxy-5-(4-phenyl-thiazol-2-yl)-tetrahydro-furan-2-ylmethyl ester] | 100 nM | > 100000 nM | – |
| N[C@@H](Cc1ccccc1)C(=O)NS(=O)(=O)OC[C@H]1O[C@@H](c2nc(-c3ccccc3)cs2)[C@H](O)[C@@H]1O [((S)-2-Amino-3-phenyl-propionyl)-sulfamic acid (2R,3S,4R,5R)-3,4-dihydroxy-5-(4-phenyl-thiazol-2-yl)-tetrahydro-furan-2-ylmethyl ester] | > 100000 nM | > 100000 nM | > 100000 nM |
| CC(C)[C@H](N)C(=O)NS(=O)(=O)OC[C@H]1O[C@@H](c2nc(-c3ccccc3)cs2)[C@H](O)[C@@H]1O [((S)-2-Amino-3-methyl-butyryl)-sulfamic acid (2R,3S,4R,5R)-3,4-dihydroxy-5-(4-phenyl-thiazol-2-yl)-tetrahydro-furan-2-ylmethyl ester] | 15000 nM | > 100000 nM | 14000 nM |
| CCC(C)[C@H](N)C(=O)NS(=O)(=O)OC[C@H]1O[C@@H](c2nc(-c3ccc(Oc4ccccc4)cc3)cs2)[C@H](O)[C@@H]1O (stereo partly drawn) [((S)-2-Amino-3-methyl-pentanoyl)-sulfamic acid (2R,3S,4R,5R)-3,4-dihydroxy-5-[4-(4-phenoxy-phenyl)-thiazol-2-yl]-tetrahydro-furan-2-ylmethyl ester] | 45 nM | – | – |
